Reference: PubChem BioAssay (NCI)
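The compound was tested at five concentrations on cells cultured in 96-well plates, with a 48-hour exposure period. Here, GI50 denotes the concentration required for 50% inhibition of growth. TGI marks complete inhibition of growth.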

How the values were obtained:
Assay in all cases: growth of human tumour cells (NCI), 48 h; in the data active = GI50 below about 0.43 µM; inactive = the rest
[1] = tested on: SF-268 CNS
[2] = tested on: A549 NSCLC
[3] = tested on: COLO 205 colon
[4] = tested on: ACHN renal
[5] = tested on: NCI-H23 lung
[6] = tested on: MALME-3M melanoma
[7] = tested on: BT-549 breast
[8] = tested on: U251 CNS
[9] = tested on: SK-MEL-5 melanoma
[10] = tested on: NCI/ADR-RES ovarian

COc1cc(S(=O)(=O)Nc2ccc(C(=O)/C=C/c3ccc(O)cc3)cc2)ccc1F
inactive: GI50 [1] > 100 µM | GI50 [2] > 100 µM | GI50 [3] > 100 µM | GI50 [4] > 100 µM | GI50 [5] > 100 µM | GI50 [6] 35.1 µM | GI50 [7] > 100 µM | GI50 [8] > 100 µM | GI50 [9] > 100 µM | GI50 [10] > 100 µM
> 100 µM: TGI [1] | TGI [2] | TGI [3] | TGI [4] | TGI [5] | TGI [6] | TGI [7] | TGI [8] | TGI [9] | TGI [10]
